Measurements taken from DBAASP.
In brackets after ≈: the same amount, converted by molar mass.

Tests used:
Experiment in all cases: ≥ marks a high value that may be exact or a test limit, other limits are often not marked, values filed in µg/mL are converted to µM
[1] = test system: Bacillus subtilis
[2] = test system: Candida albicans
[3] = test system: Escherichia coli
[4] = test system: Staphylococcus aureus
[5] = test system: Enterococcus faecalis ATCC 29212
[6] = test system: Escherichia coli DH5alpha
[7] = test system: Klebsiella pneumoniae ATCC 13883
[8] = test system: Pseudomonas aeruginosa ATCC 27853
[9] = test system: Salmonella enterica subsp. enterica serovar Typhimurium ATCC 14028
[10] = test system: Staphylococcus aureus ATCC 25923
[11] = test system: Acinetobacter baumannii ATCC 19606
[12] = test system: Acinetobacter baumannii
[13] = test system: Escherichia coli ATCC 25922
[14] = test system: Klebsiella pneumoniae
[15] = test system: Pseudomonas aeruginosa
[16] = test system: Staphylococcus aureus ATCC BAA-1556

SMILES	MIC [1] [µM]	MIC [3] [µM]	MIC [16] [µM]	other results
CC[C@H](C)[C@H](NC(=O)[C@@H]1CCCN1C(=O)[C@H](CCSC)NC(=O)[C@@H](N)Cc1ccccc1)C(=O)N[C@@H](CC(C)C)C(=O)N[C@@H](CO)C(=O)N[C@H]1CSSC[C@@H](C(=O)O)NC(=O)[C@H](CCCN=C(N)N)NC(=O)[C@H](CCCCN)NC(=O)[C@H](Cc2ccccc2)NC(=O)[C@H](CCCN=C(N)N)NC(=O)[C@H](CO)NC1=O [FMPILSCSRFKRC]	23.6 (≈ 37.5 µg/mL)	2.95 (≈ 4.67 µg/mL)	–	MIC [2]: 0.693 µM (≈ 1.1 µg/mL); MIC [4]: 5.9 µM (≈ 9.36 µg/mL)
CC[C@H](C)[C@H](NC(=O)CN)C(=O)NCC(=O)N[C@@H](CCCCN)C(=O)N[C@@H](Cc1ccccc1)C(=O)N[C@@H](CC(C)C)C(=O)N[C@@H](CCCCN)C(=O)N[C@@H](CCCCN)C(=O)N[C@@H](C)C(=O)N[C@@H](CCCCN)C(=O)N[C@@H](CCCCN)C(=O)NCC(=O)N[C@H](C(=O)NCC(=O)N[C@@H](C)C(=O)N[C@H](C(=O)N[C@@H](CC(C)C)C(=O)N[C@@H](CCCCN)C(=O)N[C@H](C(=O)N[C@@H](CC(C)C)C(=O)N[C@H](C(=O)N[C@H](C(=O)NCC(=O)N[C@@H](CC(C)C)C(=O)O)[C@@H](C)O)[C@@H](C)O)C(C)C)C(C)C)[C@@H](C)CC [GIGKFLKKAKKGIGAVLKVLTTGL]	4 (≈ 9.76 µg/mL)	–	–	MIC [5]: 64 µM (≈ 156 µg/mL); MIC [6]: 1 µM (≈ 2.44 µg/mL); MIC [7]: 1 µM (≈ 2.44 µg/mL); MIC [8]: 2 µM (≈ 4.88 µg/mL); MIC [9]: 2 µM (≈ 4.88 µg/mL); MIC [10]: 2 µM (≈ 4.88 µg/mL)
CC[C@H](C)[C@@H]1NC(=O)[C@H](CC(C)C)NC(=O)[C@H](CCC(N)=O)NC(=O)[C@H](Cc2ccc(O)cc2)NC(=O)[C@H](C)NC(=O)[C@@H](NC(=O)[C@H](CCCCN)NC(=O)[C@@H](NC(=O)[C@H](CC(C)C)NC(=O)[C@@H](NC(=O)[C@H](Cc2ccccc2)NC(=O)[C@H](CC(C)C)NC(=O)CN)[C@@H](C)O)[C@@H](C)CC)CSSC[C@@H](C(=O)N[C@@H](CC(N)=O)C(=O)O)NC(=O)[C@H](C)NC(=O)[C@H](C(C)C)NC(=O)[C@H]([C@@H](C)O)NC(=O)[C@@H]2CCCN2C(=O)[C@H](C)NC1=O [GLFTLIKCAYQLIAPTVACN]	16.6 (≈ 35.6 µg/mL)	16.6 (≈ 35.6 µg/mL)	–	MIC [2]: 4.16 µM (≈ 8.89 µg/mL); MIC [4]: 8.32 µM (≈ 17.8 µg/mL)
CC[C@H](C)[C@H](NC(=O)[C@H](CC(C)C)NC(=O)[C@H](C)NC(=O)[C@@H]1CCCN1C(=O)[C@H](CC(C)C)NC(=O)CN)C(=O)N[C@@H](CO)C(=O)N[C@@H](Cc1c[nH]c2ccccc12)C(=O)N[C@H](C(=O)N[C@@H](CCCCN)C(=O)N[C@@H](CCCN=C(N)N)C(=O)N[C@@H](CCCCN)C(=O)N[C@@H](CCCN=C(N)N)C(=O)N[C@@H](CC(C)C)C(N)=O)[C@@H](C)CC [GLPALISWIKRKRL]	0.394 (≈ 0.65 µg/mL)	6.9 (≈ 11.4 µg/mL)	–	MIC [4]: 1.57 µM (≈ 2.6 µg/mL)
CC[C@H](C)[C@H](NC(=O)[C@H](CC(C)C)NC(=O)[C@H](C)NC(=O)[C@@H]1CCCN1C(=O)[C@H](CO)NC(=O)CN)C(=O)N[C@@H](CO)C(=O)N[C@@H](Cc1c[nH]c2ccccc12)C(=O)N[C@H](C(=O)N[C@@H](CCCCN)C(=O)N[C@@H](CCCN=C(N)N)C(=O)N[C@@H](CCCCN)C(=O)N[C@@H](CCCN=C(N)N)C(=O)N[C@@H](CCC(N)=O)C(=O)N[C@@H](CCC(N)=O)C(N)=O)[C@@H](C)CC [GSPALISWIKRKRQQ]	≥ 38.2	> 153	–	MIC [4]: 50.9 µM (≈ 90 µg/mL)
CC[C@H](C)[C@H](N)C(=O)N[C@@H](CC(N)=O)C(=O)N[C@@H](Cc1c[nH]c2ccccc12)C(=O)N[C@@H](CCCCN)C(=O)N[C@@H](CCCCN)C(=O)N[C@H](C(=O)N[C@@H](Cc1ccccc1)C(=O)N[C@@H](CCC(=O)O)C(=O)N[C@@H](CCCCN)C(=O)N[C@H](C(=O)N[C@@H](CCCCN)C(=O)N[C@@H](CC(=O)O)C(=O)N[C@@H](CC(C)C)C(=O)N[C@H](C(N)=O)C(C)C)C(C)C)[C@@H](C)CC [INWKKIFEKVKDLV]	5 (≈ 8.8 µg/mL)	9 (≈ 15.8 µg/mL)	–	–
CC[C@H](C)[C@H](NC(=O)[C@@H](N)CCCCN)C(=O)N[C@@H](C)C(=O)N[C@@H](CC(C)C)C(=O)N[C@@H](CCCCN)C(=O)N[C@@H](C)C(=O)N[C@@H](CC(C)C)C(=O)N[C@@H](CCCCN)C(=O)N[C@@H](C)C(=O)N[C@@H](CC(C)C)C(=O)N[C@@H](CCCCN)C(=O)N[C@@H](C)C(=O)N[C@@H](CC(C)C)C(=O)NCC(=O)N[C@@H](CCCCN)C(=O)N[C@@H](C)C(=O)N[C@@H](CC(C)C)C(=O)N[C@@H](CCCCN)C(=O)N[C@@H](C)C(=O)N[C@@H](CC(C)C)C(N)=O [KIALKALKALKALGKALKAL]	–	32 (≈ 66 µg/mL)	–	MIC [11]: 2 µM (≈ 4.12 µg/mL); MIC [12]: 22.6 µM (≈ 46.7 µg/mL); MIC [13]: 1.41 µM (≈ 2.92 µg/mL); MIC [7]: 2.83 µM (≈ 5.83 µg/mL); MIC [14]: 22.6 µM (≈ 46.7 µg/mL); MIC [8]: 11.3 µM (≈ 23.3 µg/mL); MIC [15]: 32 µM (≈ 66 µg/mL); MIC [10]: 4 µM (≈ 8.25 µg/mL); MIC [4]: 2.83 µM (≈ 5.83 µg/mL)
CC(C)C[C@H](NC(=O)[C@H](CC(C)C)NC(=O)[C@H](CCCCN)NC(=O)[C@H](CC(C)C)NC(=O)[C@H](CC(C)C)NC(=O)[C@H](CC(C)C)NC(=O)[C@H](CC(C)C)NC(=O)[C@H](CC(C)C)NC(=O)[C@@H](N)CCCCN)C(N)=O [KLLLLLKLL]	–	–	≥ 100	–
CC[C@H](C)[C@H](NC(=O)[C@H](Cc1c[nH]c2ccccc12)NC(=O)[C@H](CCCN=C(N)N)NC(=O)[C@H](CC(C)C)NC(=O)[C@H](Cc1c[nH]c2ccccc12)NC(=O)[C@@H](N)CCCCN)C(=O)N[C@@H](CCCN=C(N)N)C(=O)N[C@@H](Cc1c[nH]c2ccccc12)C(=O)N[C@@H](CC(C)C)C(N)=O [KWLRWIRWL]	–	–	6.25 (≈ 8.47 µg/mL)	–
CC[C@H](C)[C@H](NC(=O)[C@H](Cc1c[nH]c2ccccc12)NC(=O)[C@H](C)NC(=O)[C@H](CCCN=C(N)N)NC(=O)[C@H](Cc1c[nH]c2ccccc12)NC(=O)[C@@H](N)CCCCN)C(=O)N[C@@H](CCCN=C(N)N)C(=O)N[C@@H](Cc1c[nH]c2ccccc12)C(=O)N[C@@H](CC(C)C)C(N)=O [KWRAWIRWL]	–	–	12.5 (≈ 16.4 µg/mL)	–
CC(C)C[C@H](NC(=O)[C@H](CC(C)C)NC(=O)[C@H](CCCCN)NC(=O)[C@H](CC(C)C)NC(=O)[C@H](CC(C)C)NC(=O)[C@H](Cc1c[nH]c2ccccc12)NC(=O)[C@H](CCCCN)NC(=O)[C@@H](N)CC(C)C)C(N)=O [LKWLLKLL]	–	–	12.5 (≈ 12.8 µg/mL)	–
CC(C)C[C@H](NC(=O)[C@H](CC(C)C)NC(=O)[C@H](CC(C)C)NC(=O)[C@H](CCCCN)NC(=O)[C@H](CC(C)C)NC(=O)[C@H](CC(C)C)NC(=O)[C@H](CCCCN)NC(=O)[C@H](CC(C)C)NC(=O)[C@@H](N)CC(C)C)C(N)=O [LLKLLKLLL]	–	–	3.13 (≈ 3.34 µg/mL)	–
CC(C)C[C@H](NC(=O)[C@H](CC(C)C)NC(=O)[C@H](CCCCN)NC(=O)[C@H](CC(C)C)NC(=O)[C@H](CC(C)C)NC(=O)[C@H](CC(C)C)NC(=O)[C@H](CCCCN)NC(=O)[C@H](CC(C)C)NC(=O)[C@@H](N)CC(C)C)C(=O)O [LLKLLLKLL]	–	–	≥ 100	–
CC(C)C[C@H](NC(=O)[C@H](CCCCN)NC(=O)[C@H](CC(C)C)NC(=O)[C@H](CC(C)C)NC(=O)[C@H](CC(C)C)NC(=O)[C@H](CCCCN)NC(=O)[C@H](CC(C)C)NC(=O)[C@@H](N)CC(C)C)C(N)=O [LLKLLLKL]	–	–	≥ 100	–
CC(C)C[C@H](NC(=O)[C@H](CCCCN)NC(=O)[C@H](CC(C)C)NC(=O)[C@H](CC(C)C)NC(=O)[C@H](CC(C)C)NC(=O)[C@H](CC(C)C)NC(=O)[C@H](CCCCN)NC(=O)[C@H](CC(C)C)NC(=O)[C@@H](N)CC(C)C)C(N)=O [LLKLLLLKL]	–	–	≥ 100	–
CC(C)C[C@H](NC(=O)[C@H](CCCCN)NC(=O)[C@H](CC(C)C)NC(=O)[C@H](CC(C)C)NC(=O)[C@H](CC(C)C)NC(=O)[C@H](CCCCN)NC(=O)[C@H](CC(C)C)NC(=O)[C@H](CC(C)C)NC(=O)[C@@H](N)CC(C)C)C(N)=O [LLLKLLLKL]	–	–	≥ 100	–
CC[C@H](C)[C@H](NC(=O)[C@H](Cc1c[nH]c2ccccc12)NC(=O)[C@@H](N)CCCN=C(N)N)C(=O)N[C@@H](CCCN=C(N)N)C(=O)N[C@@H](Cc1c[nH]c2ccccc12)C(=O)N[C@@H](CC(C)C)C(N)=O [RWIRWL]	–	–	≥ 100	–
CC(C)[C@H](N)C(=O)N[C@H](C(=O)N[C@@H](CCCCN)C(=O)N[C@H](C(=O)N[C@H](C(=O)N[C@H](C(=O)N[C@@H](CCCCN)C(=O)N[C@H](C(=O)N[C@H](C(N)=O)C(C)C)C(C)C)C(C)C)C(C)C)C(C)C)C(C)C [VVKVVVKVV]	–	–	≥ 100	–
CC(C)C[C@H](NC(=O)[C@H](Cc1c[nH]c2ccccc12)NC(=O)[C@H](Cc1c[nH]c2ccccc12)NC(=O)[C@H](CCCN=C(N)N)NC(=O)[C@H](Cc1c[nH]c2ccccc12)NC(=O)[C@H](Cc1c[nH]c2ccccc12)NC(=O)[C@H](CC(C)C)NC(=O)[C@H](Cc1c[nH]c2ccccc12)NC(=O)[C@@H](N)Cc1c[nH]c2ccccc12)C(N)=O [WWLWWRWWL]	–	–	6.25 (≈ 9.48 µg/mL)	–
